Assay results reported in paper PMC4769701, “Discovery and characterization of a high-affinity and high-specificity peptide ligand LXY30 for in vivo targeting of α3 integrin-expressing human tumors” (EJNMMI Research, 2016).
Positions of bridges follow the written chain, without caps; N, C: chain ends. Non-standard residues stand in square brackets, D forms with d. Residues, ends and D or L forms follow the SMILES beside them. Phe(3,4,5-F3) = N[C@@H](Cc1cc(F)c(F)c(F)c1)C(=O)O; Phe(3,5-F2) = N[C@@H](Cc1cc(F)cc(F)c1)C(=O)O; Hyp = O=C(O)[C@@H]1C[C@@H](O)CN1

How the values were obtained:
[1] = biological target: T1, α3β1 integrin-expressing U-87MG glioblastoma cells (Homo sapiens, UniProt P26006); assay: biochemical; format: binding; settings: for Relative binding index: peptide 0.4 μM competing with 0.5 μM LXY1-biotin on U-87MG cells, relative to LXY1, greater RBI = higher affinity; for IC50: series of concentrations competing with 0.5 μM LXY1-biotin binding to U-87MG cells
T1 construct: we incubated U-87MG cells which express α3β1 integrin; endogenous in cells; host or cells: U-87MG human glioblastoma cells
Protocol: (§1) Confluent tumor cells (80-90 %) were dissociated with 0.05 % trypsin-EDTA and neutralized with culture medium. To determine the expression of α3 and β1 integrins, 1 μg of anti-α3 or anti-β1 antibody was mixed with 1 million cells for 30 min, followed by anti-mouse IgG-PE incubation and flow cytometry (Coulter XL-MCL). […] Then each sample was washed three times with 1 mL PBS containing 1 % FBS. Samples thereafter were incubated with a 1:500 dilution of streptavidin-PE (1 mg/mL) for 30 min on ice followed by a single wash with 1 mL of PBS containing 1 % FBS. Finally, the samples in PBS were analyzed by flow cytometry. […] The mixture was then incubated with cancer cells followed by streptavidin-PE. Samples were analyzed by flow cytometry, and mean fluorescence intensity (MFI) was decided for each individual sample. […] For blocking experiments, the samples were incubated with non-biotinylated LXY30, anti-α3, or anti-β1 antibody for 30 min prior to incubation with 20 nM biotinylated LXY30.

[2] = tested on: subcutaneous U-87MG xenograft tumors; assay: In vivo NIRF optical imaging, subcutaneous xenograft; design: species or system nude mice; settings: for improvement in tumor targeting over LXY1: optical imaging, U-87MG glioblastoma xenograft model, data not shown
From the text: Halogen lamp light source was set to maximum.

MDA-MB 231 = assay: LXY30 binding by flow cytometry; design: species or system human; settings: 1µM LXY30; MDA-MB 231, breast, basal like
Protocol: as §1, with “(80–90” for “(80-90”
(§2) *(MFI W/ LXY30)/ (MFI W/O LXY30): Mean Fluorescence Intensity of cells incubated with 1µM LXY30 divided by Mean Fluorescence Intensity of cells without incubation with LXY30.
(§3) Mean Fluorescence Intensity (MFI) was used as the quantitative measurement. The binding strength was grouped into five categories based on the value. “0”: 1 “1+”: 1.1~4.9 “2+”: 5~19.9 “3+”: 20~79.9 “4+”: > or = 80-fold

SKBR3 = assay: LXY30 binding by flow cytometry; design: species or system human; settings: 1µM LXY30; SKBR3, breast, HER2
Protocol: as §1, with “(80–90” for “(80-90”
as §2, §3

H1650 = assay: LXY30 binding by flow cytometry; design: species or system human; settings: 1µM LXY30; H1650, lung, bronchoalveolar
Protocol: as §1, with “(80–90” for “(80-90”
as §2, §3

T47D = assay: LXY30 binding by flow cytometry; design: species or system human; settings: 1µM LXY30, breast, luminal A
Protocol: as §1, with “(80–90” for “(80-90”
as §2, §3

H3255 = assay: LXY30 binding by flow cytometry; design: species or system human; settings: 1µM LXY30; H3255, lung, adenocarcinoma
Protocol: as §1, with “(80–90” for “(80-90”
as §2, §3

HCC827 = assay: LXY30 binding by flow cytometry; design: species or system human; settings: 1µM LXY30; HCC827, lung, adenocarcinoma
Protocol: as §1, with “(80–90” for “(80-90”
as §2, §3

H2228 = assay: LXY30 binding by flow cytometry; design: species or system human; settings: 1µM LXY30; H2228, lung, adenocarcinoma
Protocol: as §1, with “(80–90” for “(80-90”
as §2, §3

MCF7 = assay: LXY30 binding by flow cytometry; design: species or system human; settings: 1µM LXY30; MCF7, breast, luminal A
Protocol: as §1, with “(80–90” for “(80-90”
as §2, §3

BT-20 = assay: LXY30 binding by flow cytometry; design: species or system human; settings: 1µM LXY30; BT-20, breast, basal like
Protocol: as §1, with “(80–90” for “(80-90”
as §2, §3

A549 = assay: LXY30 binding by flow cytometry; design: species or system human; settings: 1µM LXY30; A549, lung, adenocarcinoma
Protocol: as §1, with “(80–90” for “(80-90”
as §2, §3

H460 = assay: LXY30 binding by flow cytometry; design: species or system human; settings: 1µM LXY30; H460, lung, large cell
Protocol: as §1, with “(80–90” for “(80-90”
as §2, §3

H1975 = assay: LXY30 binding by flow cytometry; design: species or system human; settings: 1µM LXY30; H1975, lung, adenocarcinoma
Protocol: as §1, with “(80–90” for “(80-90”
as §2, §3

[3] = In vitro stability assay in human plasma; format: in vitro ADME; settings: 90% human plasma (EDTA, healthy donors); 200 µM in 90% human plasma, 37°C, up to 8 days, RP-HPLC; t1/2=1/kobs·ln(2)
Protocol: Figure S3. The in vitro stability of LXY30 in human plasma. LXY30 was incubated with 90% human plasma from healthy donor at 37°C for up to 8 days. The peptide concentrations were determined by integration of the LXY30 peak (area) from reversed-phase high-performance liquid chromatography (RP-HPLC) chromatograms at UV 214 nm. The half-life of LXY30 in the plasma was calculated as 16.0 days using the formula t1/2=1/kobs·ln(2). Assays were performed in triplicate.
Human plasma was separated from the peripheral blood collected in the EDTA-containing blood collection tube from healthy donors. One hundred microliters of LXY30 solution (2 mM in water) was mixed with 900 µL of plasma (final concentration of LXY30 was 200 µM) and incubated at 37°C under sterile conditions. […] A control plasma sample without LXY30 but treated in the same manner was also analyzed. […]
RP-HPLC analysis was performed on the Waters 2996 HPLC system equipped with a Luna® analytical column from Phenomenex (5 µm, C18, 100 A°, 250 x 4.6 mm). […] The relative concentrations of the remaining LXY30 were analyzed by the integration of the absorbance at 214 nm (area).
Half-life (t1/2) for LXY30 in the plasma solution was calculated from plots of the natural logarithm of the residual concentration against time using the formula t1/2=1/kobs·ln(2), where kobs is the apparent first order rate constant for the observed degradation.

[4] = biological target: T2, α3 subunit of α3β1 integrin on U-87MG cells (Homo sapiens, UniProt P26006); assay: Blocking of LXY30-biotin binding to U-87MG cells, flow cytometry; settings: 100 μM free peptide pre-incubated 30 min before 20 nM LXY30-biotin
T2 construct: we incubated U-87MG cells which express α3β1 integrin; endogenous in cells; host or cells: U-87MG human glioblastoma cells
Protocol: as §1, with “(80–90” for “(80-90”
Fig. 2 Synthesis and chemical structures of several peptide conjugates and binding specificity of LXY30 to U-87MG cells. The synthesis and chemical structures of peptide conjugates LXY30-biotin, LXY30-FITC, and scrambled-LXY30-FITC (S-LXY30-FITC) used for in vitro and in vivo characterization, as well as imaging studies were shown (a). […]

T1 sequence (P26006 33-872 limits assumed): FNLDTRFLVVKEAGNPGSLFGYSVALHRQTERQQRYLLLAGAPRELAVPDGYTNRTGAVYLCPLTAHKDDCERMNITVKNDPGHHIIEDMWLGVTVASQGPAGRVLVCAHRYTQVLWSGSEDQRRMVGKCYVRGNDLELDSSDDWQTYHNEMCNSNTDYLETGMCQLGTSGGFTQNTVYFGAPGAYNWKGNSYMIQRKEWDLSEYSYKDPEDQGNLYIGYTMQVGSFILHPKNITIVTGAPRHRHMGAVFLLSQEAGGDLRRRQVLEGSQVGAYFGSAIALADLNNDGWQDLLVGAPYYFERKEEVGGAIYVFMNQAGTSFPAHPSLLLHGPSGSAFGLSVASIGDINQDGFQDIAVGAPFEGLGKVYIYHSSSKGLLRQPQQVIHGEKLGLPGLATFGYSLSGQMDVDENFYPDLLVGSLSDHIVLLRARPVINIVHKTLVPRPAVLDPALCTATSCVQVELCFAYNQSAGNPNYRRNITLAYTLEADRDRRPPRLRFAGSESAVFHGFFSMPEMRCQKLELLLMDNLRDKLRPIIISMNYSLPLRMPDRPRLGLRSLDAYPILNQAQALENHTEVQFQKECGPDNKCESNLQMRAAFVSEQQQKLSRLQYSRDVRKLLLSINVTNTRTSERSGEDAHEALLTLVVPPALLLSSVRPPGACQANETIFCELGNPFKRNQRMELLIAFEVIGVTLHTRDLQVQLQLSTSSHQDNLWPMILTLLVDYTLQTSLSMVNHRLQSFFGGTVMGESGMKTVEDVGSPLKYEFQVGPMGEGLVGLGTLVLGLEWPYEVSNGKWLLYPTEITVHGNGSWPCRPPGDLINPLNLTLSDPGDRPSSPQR
T1 sequence (P26006 873-1051 partner limits assumed): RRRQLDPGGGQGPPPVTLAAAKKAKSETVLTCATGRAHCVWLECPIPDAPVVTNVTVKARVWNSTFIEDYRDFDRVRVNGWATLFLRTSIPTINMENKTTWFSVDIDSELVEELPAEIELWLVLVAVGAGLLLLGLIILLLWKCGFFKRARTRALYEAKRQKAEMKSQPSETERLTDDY
T1 sequence (P05556 21-798 partner): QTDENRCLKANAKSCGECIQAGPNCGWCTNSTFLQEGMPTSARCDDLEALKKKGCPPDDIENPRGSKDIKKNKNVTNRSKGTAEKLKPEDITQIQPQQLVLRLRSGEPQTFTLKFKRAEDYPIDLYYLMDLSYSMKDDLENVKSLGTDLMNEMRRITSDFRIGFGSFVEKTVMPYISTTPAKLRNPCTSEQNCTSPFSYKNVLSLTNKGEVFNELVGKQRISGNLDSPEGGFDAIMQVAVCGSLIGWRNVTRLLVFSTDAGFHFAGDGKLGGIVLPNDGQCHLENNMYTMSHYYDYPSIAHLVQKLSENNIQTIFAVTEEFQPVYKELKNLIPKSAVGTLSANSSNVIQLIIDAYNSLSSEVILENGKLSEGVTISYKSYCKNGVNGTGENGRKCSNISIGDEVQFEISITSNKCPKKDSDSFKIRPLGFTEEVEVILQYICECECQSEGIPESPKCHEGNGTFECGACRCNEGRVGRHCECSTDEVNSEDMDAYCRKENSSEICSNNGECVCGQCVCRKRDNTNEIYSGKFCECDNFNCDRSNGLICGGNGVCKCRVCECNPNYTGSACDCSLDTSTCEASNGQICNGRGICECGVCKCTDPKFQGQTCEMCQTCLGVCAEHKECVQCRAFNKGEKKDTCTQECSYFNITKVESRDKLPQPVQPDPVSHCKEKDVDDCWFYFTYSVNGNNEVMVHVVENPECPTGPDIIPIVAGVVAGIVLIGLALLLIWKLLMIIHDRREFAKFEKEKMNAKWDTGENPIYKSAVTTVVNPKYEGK
T2 sequence (P26006 33-872 limits assumed): as the sequence (P26006 33-872 limits assumed) above
T2 sequence (P26006 873-1051 partner limits assumed): as the sequence (P26006 873-1051 partner limits assumed) above
T2 sequence (P05556 21-798 partner): as the sequence (P05556 21-798 partner) above

For `NC(=O)C[C@@H]1NC(=O)[C@@H]2C[C@@H](O)CN2C(=O)CNC(=O)[C@H](Cc2cc(F)cc(F)c2)NC(=O)CNC(=O)[C@@H](CC(=O)O)NC(=O)[C@H](N)CSSC[C@H](C(N)=O)NC1=O` [LXY4, cdG-Phe(3,5-diF)-G-Hyp-Nc] (H-[dC][dD]G[Phe(3,5-F2)]G[Hyp]N[dC]-NH2; disulfide 1-8; N-terminus assumed), the Relative binding index [1] was 1.36 ± 0.11, the IC50 [1] was 410 ± 30 nM and the “improvement in tumor targeting over LXY1” value [2] was “did not show improvement”.
In the case of cdG-Tyr(3-NO2)-G-Hyp-Nc [LXY3], the “improvement in tumor targeting over LXY1” value [2] is reported as “did not show improvement”.
Molecule `N=C(N)NCCC[C@H](NC(=O)[C@H]1CSSC[C@@H](N)C(=O)N[C@H](CC(=O)O)C(=O)NCC(=O)N[C@@H](Cc2cc(F)c(F)c(F)c2)C(=O)NCC(=O)N2C[C@H](O)C[C@H]2C(=O)N[C@@H](CC(N)=O)C(=O)N1)C(N)=O` [LXY7] (H-[dC][dD]G[Phe(3,4,5-F3)]G[Hyp]N[dC]R-NH2; disulfide 1-8; N-terminus assumed) has a Relative binding index [1] of 1.62 ± 0.10 and an IC50 [1] of 130 ± 12 nM.
For `N=C(N)NCCC[C@H](NC(=O)[C@H]1CSSC[C@@H](N)C(=O)N[C@H](CC(=O)O)C(=O)NCC(=O)N[C@@H](Cc2cc(F)cc(F)c2)C(=O)NCC(=O)N2C[C@H](O)C[C@H]2C(=O)N[C@@H](CC(N)=O)C(=O)N1)C(N)=O` [LXY30, cdG-Phe(3,5-diF)-G-Hyp-NcR] (H-[dC][dD]G[Phe(3,5-F2)]G[Hyp]N[dC]R-NH2; disulfide 1-8; N-terminus assumed), the “(MFI W/ LXY30)/ (MFI W/O LXY30)” value (MDA-MB 231) was 4+ (“4+”: > or = 80-fold), the “(MFI W/ LXY30)/ (MFI W/O LXY30)” value (SKBR3) was 1+ (“1+”: 1.1~4.9) and the “(MFI W/ LXY30)/ (MFI W/O LXY30)” value (H1650) was 4+ (“4+”: > or = 80-fold). The “(MFI W/ LXY30)/ (MFI W/O LXY30)” value (T47D) was 1+ (“1+”: 1.1~4.9), the “(MFI W/ LXY30)/ (MFI W/O LXY30)” value (H3255) was 2+ (“2+”: 5~19.9) and the “(MFI W/ LXY30)/ (MFI W/O LXY30)” value (HCC827) was 4+ (“4+”: > or = 80-fold). For the same molecule, the “(MFI W/ LXY30)/ (MFI W/O LXY30)” value (H2228) was 4+ (“4+”: > or = 80-fold), the “(MFI W/ LXY30)/ (MFI W/O LXY30)” value (MCF7) was 2+ (“2+”: 5~19.9) and the “(MFI W/ LXY30)/ (MFI W/O LXY30)” value (BT-20) was 2+ (“2+”: 5~19.9). The “(MFI W/ LXY30)/ (MFI W/O LXY30)” value (A549) was 4+ (“4+”: > or = 80-fold), the “(MFI W/ LXY30)/ (MFI W/O LXY30)” value (H460) was 1+ (“1+”: 1.1~4.9) and the “(MFI W/ LXY30)/ (MFI W/O LXY30)” value (H1975) was 4+ (“4+”: > or = 80-fold). For the same molecule, the “fold higher binding affinity compared to LXY1” value ([1]; U-87MG cells, from IC50 values) was 44 fold, the Relative binding index [1] was 1.68 ± 0.10 and the IC50 [1] was 80 ± 10 nM. The half-life at 200 µM [3] was 16 days, the “blocking of LXY30-biotin binding by free peptide” value [4] was “inhibited or prevented” and the “MFI of tumor, fold over LXY1” value ([2]; tail vein, 1.8 nmol complex, ROI on xenograft tumor) was 1.4 folds.
